The values below are quoted from earlier work in patent US20070184040A1, “Compositions for delivery of coenzyme Q10” (priority 2006, published 2007).

For the compound `COC1=C(OC)C(=O)C(C/C=C(\C)CC/C=C(\C)CC/C=C(\C)CC/C=C(\C)CC/C=C(\C)CC/C=C(\C)CC/C=C(\C)CC/C=C(\C)CC/C=C(\C)CCC=C(C)C)=C(C)C1=O` [CoQ10, Coenzyme Q10], the “solubility in most hydrophilic solvents, such as water” value is reported as “very poorly soluble”.
